One molecule from PMC13184981, “Discovery and Development of a Potent LIMK2 Isoform-Specific Degrader” (ACS Chemical Biology, 2026) can be followed below.

The experiment deals with T1, EGFP–LIMK2 (Homo sapiens, UniProt P53671).
T1 construct: P2A remnant (from EGFP-LIMK2-P2A-mCherry; that residues stay on LIMK2 after self-cleavage is own knowledge) (C); expressed in transfected cells; host or cells: HuCCT1 (lentiviral transduction, doxycycline-inducible pCW57 vector)
In words: EGFP-LIMK2 depletion live-cell assay (Incucyte). Type of experiment: cell-based. On the procedure:
To enable a more comprehensive and rapid evaluation of the synthesized PROTACs, we generated a stable, doxycycline-inducible HuCCT1 cell line that expressed an N-terminally fused EGFP–LIMK2 protein. […] The degradation activity of the synthesized PROTACs set was screened at five concentrations ranging from 1 nM to 1000 nM over 72 h using live-cell imaging (Figure E).
LIMK2 was cloned into pcDNA5-EGFP-NLS-P2A-mCherry-PTS1 (Addgene plasmid #87803) by replacing the NLS sequence with the LIMK2 sequence. pcDNA5-EGFP-NLS-P2A-mCherry-PTS1 was a gift from Andrea Musacchio. Subsequently, EGFP-[…]-P2A-mCherry was cloned into the lentiviral vector pCW57-MCS1-P2A-MCS2 (Hygro) (Addgene plasmid #80922) to generate pCW57-HygB-EGFP-LIMK2-P2A-mCherry. pCW57-MCS1-P2A-MCS2 (Hygro) was a gift from Adam Karpf.
HEK293T cells (ATCC, CRL-3216) were cultured in Dulbecco’s Modified Eagle’s Medium (DMEM), while HUCCT1 cells (ATCC, CRL-1997) were cultured in RPMI medium supplemented with 10% fetal bovine serum (FBS) and 1% penicillin/streptomycin (P/S) antibiotic mix (all from Sigma-Aldrich, St. Louis, Missouri, USA). Lentiviral particles were produced in HEK293T cells using pCW57-HygB-EGFP-LIMK2-[…]P2A-mCherry, pMD2.G, and psPAX2. HUCCT1 cells were transduced with lentivirus to express LIMK2.
Briefly, the cells were plated and propagated in 6-well plates overnight. The next day, transduction with viruses was performed. Two days later, transduced cells with pCW57-HygB-EGFP-LIMK2-P2A-mCherry plasmids were selected using 100 μg/mL Hygromycin B. After at least three passages, the cells were sorted for the same populations of RFP- and GFP-expressing cells using the SH800S Cell Sorter (Sony Biotechnology, San Jose, CA, USA). Stable pools of cells were maintained in the same medium used for selection.
To assess the turnover of LIMK2, we used the Incucyte S3 or XS5 live-cell imaging system and performed the assay as previously described. , Briefly, 2,000 HUCCT1 cells stably expressing EGFP-LIMK2-P2A-mCherry were seeded per well in a 384-well plate in 50 μL of RPMI medium supplemented with 10% fetal bovine serum (FBS) and 1% penicillin/streptomycin. Cells were incubated for 24 h before treatment. To induce LIMK2 expression, 1 μg/mL of doxycycline (Sigma-Aldrich, D9891–1G) was added at the time of seeding.
After 24 h, 50 μL of medium containing either 0.1% DMSO or the desired concentration of PROTACs was added. Fluorescence in three channels–GFP, RFP, and phase contrast (cell confluence)–was monitored every 2 h for 72 h using the Incucyte S3 or XS5 (Sartorius, Germany). LIMK2 turnover was quantified by calculating the ratio of total fluorescence intensity of RFP to GFP. Each time point represents the average ratio from three technical replicates.

T1 sequence (P53671 whole entry): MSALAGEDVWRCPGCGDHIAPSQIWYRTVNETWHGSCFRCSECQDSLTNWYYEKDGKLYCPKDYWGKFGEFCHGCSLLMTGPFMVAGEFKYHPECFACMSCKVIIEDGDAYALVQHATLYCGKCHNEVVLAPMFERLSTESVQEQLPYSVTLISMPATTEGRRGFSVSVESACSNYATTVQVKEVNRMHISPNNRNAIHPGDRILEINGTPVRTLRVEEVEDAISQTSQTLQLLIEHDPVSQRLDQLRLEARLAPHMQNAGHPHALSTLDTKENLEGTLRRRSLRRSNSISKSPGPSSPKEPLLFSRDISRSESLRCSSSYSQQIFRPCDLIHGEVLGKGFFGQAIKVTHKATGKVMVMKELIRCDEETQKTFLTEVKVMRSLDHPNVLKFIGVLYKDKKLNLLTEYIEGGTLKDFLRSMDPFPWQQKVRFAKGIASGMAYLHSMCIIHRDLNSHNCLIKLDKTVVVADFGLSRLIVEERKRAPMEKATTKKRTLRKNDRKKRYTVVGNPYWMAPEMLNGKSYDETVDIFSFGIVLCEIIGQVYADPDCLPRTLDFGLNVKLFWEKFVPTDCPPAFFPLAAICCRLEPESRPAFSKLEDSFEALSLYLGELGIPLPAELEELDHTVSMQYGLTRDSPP

In the case of `Cc1c(OCc2cn(CCCCC(=O)Nc3ncc(-c4cc(C(F)F)nn4-c4c(Cl)cccc4Cl)s3)nn2)cccc1N1CCC(=O)NC1=O` [22b], the Dmax is, setting by setting: (10 nM PROTAC) 88.2%; (100 nM PROTAC) 97.6%; (1000 nM PROTAC) 98.5%. For the same molecule, under “EGFP–LIMK2 monitored over 72 h”, the “time to maximum degradation after PROTAC treatment” value is given as “approximately 60 h”. In addition, the “EGFP–LIMK2 degradation with MLN4924 cotreatment” value (PROTAC 10, 100 and 1000 nM + MLN4924 1 μM) is reported as “no LIMK2 degradation”.
